Eight molecules from US20230072860A1, “ISOXAZOLINE OXIME FORMATE COMPOUND, PREPARATION METHOD THEREFOR, HERBICIDAL COMPOSITION AND USE THEREOF” (QINGDAO KINGAGROOT CHEMICAL COMPOUND CO., LTD., priority 2020, published 2023) can be followed below.

Holding throughout (assay): Experiment on weeding effect in post-emergence stage
Common to all, as to assay type: in vivo
Common to all, as to details: dose 15 g a.i./ha, fresh weight control rate level

The test system of one assay is Eleusine indica. An excerpt: (§1) Experiment on weeding effect in post-emergence stage:
(§2) Monocotyledonous and dicotyledonous weed seeds (Descurainia sophia, Capsella bursa-pastoris, Abutilon theophrasti, Galium aparine, Stellaria media, Lithospermum arvense, Rorippa indica, Alopecurus aequalis, Alopecurus japonicus, Beckmannia syzigachne, Sclerochloa dura, Conyza Canadensis, Phleum paniculatum, Veronica didyma Tenore, Eleusine indica, Bromus japonicus, Aegilops tauschii, Phalaris arundinacea, Amaranthus retroflexus, Chenopodium album, Commelina communis, Sonchus arvensis, Convolvulus arvensis, Cirsium setosum, Solanum nigrum, Acalypha australis, Digitaria sanguinalis, Echinochloa crusgalli, Setaria viridis, Setaria glauca, Leptochloa chinensis, Monochoria vaginalis, Sagittaria trolia, Scirpus juncoides, Cyperus rotundus, Cyperus iria, Cyperus difformis, Elmbristylis, Portulaca oleracea, Xanthium sibiricum, Pharbitis nil) and major crop seeds (wheat, corn, rice, soybean, cotton, oilseed rape, millet, sorghum, potato, sesame, ricinus) were placed in plastic pots filled with soil, then covered with 0.5-2 cm of soil, allowed to grow in a good greenhouse environment. After 2 weeks of sowing, the test plants were treated in the 2-3 leaf stage. The tested compounds of the present invention were respectively dissolved in acetone, then added with Tween 80 and 1.5 liter/ha of emulsifiable concentrate of methyl oleate as synergist, diluted with a certain amount of water to obtain a solution with a certain concentration, and sprayed with a spray tower onto the plants. After the application, the plants were cultured for 3 weeks in the greenhouse, and then the experimental results of the weeding were counted. The doses of the used compounds were 500, 250, 125, 60, 15 g a.i./ha, and the averages were obtained by repeating for three times.

The test system of the next assay is Veronica didyma Tenore.
Text: as §1, §2

Another assay concerns Leptochloa chinensis.
Text: as §1, §2

In a further assay the test system is Echinochloa crusgalli.
Text: as §1, §2

A further assay deals with Digitaria sanguinalis.
Text: as §1, §2

A further assay concerns Abutilon theophrasti.
Text: as §1, §2

The next assay concerns Amaranthus retroflexus.
Text: as §1, §2

For a further assay, the system named is Setaria viridis.
Text: as §1, §2

A further assay relates to Galium aparine.
Text: as §1, §2

`COC/C(C)=N/OC(=O)C1(C)CC(c2cc(-n3c(=O)n(C)c(=S)n(C)c3=S)c(F)cc2Cl)=NO1` (stereo not drawn) [Compound 68]: the “weeding effect in post-emergence stage, Eleusine indica (level)” value (“weeding effect … Eleusine indica (level)” below) in the assay with Eleusine indica is given as 5 (Level 5: growth control rate is above 85%). Further, the “weeding effect in post-emergence stage, Veronica didyma Tenore (level)” value (from here on “weeding effect … Veronica didyma Tenore (level)”) in the assay on Veronica didyma Tenore is recorded as 5 (Level 5: growth control rate is above 85%). Further, the “weeding effect in post-emergence stage, Leptochloa chinensis (level)” value (from here on “weeding effect … Leptochloa chinensis (level)”) in the assay on Leptochloa chinensis is recorded as 5 (Level 5: growth control rate is above 85%). Also, the “weeding effect in post-emergence stage, Echinochloa crusgalli (level)” value (“weeding effect … Echinochloa crusgalli (level)” below) with Echinochloa crusgalli is listed as 5 (Level 5: growth control rate is above 85%). Also, in the assay with Digitaria sanguinalis, the “weeding effect in post-emergence stage, Digitaria sanguinalis (level)” value (“weeding effect … Digitaria sanguinalis (level)” below) is given as 5 (Level 5: growth control rate is above 85%). The “weeding effect in post-emergence stage, Abutilon theophrasti (level)” value (“weeding effect … Abutilon theophrasti (level)” below) in the assay with Abutilon theophrasti is given as 5 (Level 5: growth control rate is above 85%). In addition, in the assay with Amaranthus retroflexus, the “weeding effect in post-emergence stage, Amaranthus retroflexus (level)” value (shortened to “weeding effect … Amaranthus retroflexus (level)”) is recorded as 5 (Level 5: growth control rate is above 85%). Also, the “weeding effect in post-emergence stage, Setaria viridis (level)” value (shortened to “weeding effect … Setaria viridis (level)”) with Setaria viridis is 5 (Level 5: growth control rate is above 85%). The “weeding effect in post-emergence stage, Galium aparine (level)” value (“weeding effect … Galium aparine (level)” below) with Galium aparine was 5 (Level 5: growth control rate is above 85%).

For `C/C(=N\OC(=O)C1(C)CC(c2cc(-n3c(=O)n(C)c(=S)n(C)c3=S)c(F)cc2Cl)=NO1)C1CC1` (stereo not drawn) [Compound 61], the “weeding effect … Eleusine indica (level)” value in the assay with Eleusine indica is given as 5 (Level 5: growth control rate is above 85%). The “weeding effect … Veronica didyma Tenore (level)” value with Veronica didyma Tenore is given as 5 (Level 5: growth control rate is above 85%). Besides, the “weeding effect … Leptochloa chinensis (level)” value in the assay with Leptochloa chinensis is 5 (Level 5: growth control rate is above 85%). In addition, in the assay with Echinochloa crusgalli, the “weeding effect … Echinochloa crusgalli (level)” value was 5 (Level 5: growth control rate is above 85%). In addition, in the assay with Digitaria sanguinalis, the “weeding effect … Digitaria sanguinalis (level)” value is reported as 5 (Level 5: growth control rate is above 85%). Moreover, in the assay with Abutilon theophrasti, the “weeding effect … Abutilon theophrasti (level)” value is given as 5 (Level 5: growth control rate is above 85%). Moreover, in the assay on Amaranthus retroflexus, the “weeding effect … Amaranthus retroflexus (level)” value is 5 (Level 5: growth control rate is above 85%). The “weeding effect … Setaria viridis (level)” value in the assay on Setaria viridis is on record as 5 (Level 5: growth control rate is above 85%). Further, the “weeding effect … Galium aparine (level)” value in the assay with Galium aparine is 5 (Level 5: growth control rate is above 85%).

As to `CC(=NOC(=O)C1(C)CC(c2cc(-n3c(=O)n(C)c(=S)n(C)c3=O)c(F)cc2Cl)=NO1)C1CC1` (mixture of isomers) [Compound 84], the “weeding effect … Eleusine indica (level)” value in the assay with Eleusine indica is recorded as 5 (Level 5: growth control rate is above 85%). Also, the “weeding effect … Veronica didyma Tenore (level)” value in the assay with Veronica didyma Tenore was 5 (Level 5: growth control rate is above 85%). Also, the “weeding effect … Leptochloa chinensis (level)” value with Leptochloa chinensis is 5 (Level 5: growth control rate is above 85%). Also, in the assay on Echinochloa crusgalli, the “weeding effect … Echinochloa crusgalli (level)” value is listed as 5 (Level 5: growth control rate is above 85%). Further, in the assay with Digitaria sanguinalis, the “weeding effect … Digitaria sanguinalis (level)” value is on record as 5 (Level 5: growth control rate is above 85%). Moreover, in the assay on Abutilon theophrasti, the “weeding effect … Abutilon theophrasti (level)” value is listed as 5 (Level 5: growth control rate is above 85%). Also, the “weeding effect … Amaranthus retroflexus (level)” value in the assay on Amaranthus retroflexus is 5 (Level 5: growth control rate is above 85%). The “weeding effect … Setaria viridis (level)” value in the assay with Setaria viridis is 5 (Level 5: growth control rate is above 85%). For the same molecule, the “weeding effect … Galium aparine (level)” value in the assay on Galium aparine is reported as 5 (Level 5: growth control rate is above 85%).

Consider `CCOC(=O)C(C)=NOC(=O)C1(C)CC(c2cc(-n3c(=O)n(C)c(=S)n(C)c3=O)c(F)cc2Cl)=NO1` (stereo not drawn) [Compound 123], for which the “weeding effect … Eleusine indica (level)” value with Eleusine indica is reported as 5 (Level 5: growth control rate is above 85%). The “weeding effect … Veronica didyma Tenore (level)” value in the assay with Veronica didyma Tenore is given as 5 (Level 5: growth control rate is above 85%). The “weeding effect … Leptochloa chinensis (level)” value with Leptochloa chinensis is recorded as 5 (Level 5: growth control rate is above 85%). The “weeding effect … Echinochloa crusgalli (level)” value with Echinochloa crusgalli was 5 (Level 5: growth control rate is above 85%). In addition, in the assay with Digitaria sanguinalis, the “weeding effect … Digitaria sanguinalis (level)” value is given as 5 (Level 5: growth control rate is above 85%). Besides, in the assay on Abutilon theophrasti, the “weeding effect … Abutilon theophrasti (level)” value is on record as 5 (Level 5: growth control rate is above 85%). In the assay with Amaranthus retroflexus, the “weeding effect … Amaranthus retroflexus (level)” value is recorded as 5 (Level 5: growth control rate is above 85%). In the assay on Setaria viridis, the “weeding effect … Setaria viridis (level)” value was 5 (Level 5: growth control rate is above 85%). In addition, the “weeding effect … Galium aparine (level)” value in the assay on Galium aparine was 5 (Level 5: growth control rate is above 85%).

`CCO/C(C)=N/OC(=O)C1(C)CC(c2cc(-n3c(=O)n(C)c(=S)n(C)c3=S)c(F)cc2Cl)=NO1` (stereo not drawn) [Compound 67]: in the assay with Eleusine indica, the “weeding effect … Eleusine indica (level)” value is listed as 5 (Level 5: growth control rate is above 85%). Also, the “weeding effect … Veronica didyma Tenore (level)” value with Veronica didyma Tenore is reported as 5 (Level 5: growth control rate is above 85%). For the same molecule, the “weeding effect … Leptochloa chinensis (level)” value in the assay on Leptochloa chinensis is listed as 5 (Level 5: growth control rate is above 85%). Also, the “weeding effect … Echinochloa crusgalli (level)” value with Echinochloa crusgalli was 5 (Level 5: growth control rate is above 85%). Also, in the assay with Digitaria sanguinalis, the “weeding effect … Digitaria sanguinalis (level)” value is recorded as 5 (Level 5: growth control rate is above 85%). For the same molecule, the “weeding effect … Abutilon theophrasti (level)” value in the assay with Abutilon theophrasti is 5 (Level 5: growth control rate is above 85%). In the assay with Amaranthus retroflexus, the “weeding effect … Amaranthus retroflexus (level)” value is listed as 5 (Level 5: growth control rate is above 85%). For the same molecule, the “weeding effect … Setaria viridis (level)” value in the assay with Setaria viridis is 5 (Level 5: growth control rate is above 85%). Moreover, the “weeding effect … Galium aparine (level)” value in the assay with Galium aparine is recorded as 5 (Level 5: growth control rate is above 85%).

With `C/C=N/OC(=O)C1(C)CC(c2cc(-n3c(=O)n(C)c(=S)n(C)c3=S)c(F)cc2Cl)=NO1` (stereo not drawn) [Compound 54], the “weeding effect … Eleusine indica (level)” value in the assay with Eleusine indica was 5 (Level 5: growth control rate is above 85%). In addition, in the assay with Veronica didyma Tenore, the “weeding effect … Veronica didyma Tenore (level)” value is on record as 5 (Level 5: growth control rate is above 85%). In addition, the “weeding effect … Leptochloa chinensis (level)” value in the assay on Leptochloa chinensis is recorded as 5 (Level 5: growth control rate is above 85%). Further, the “weeding effect … Echinochloa crusgalli (level)” value in the assay with Echinochloa crusgalli is recorded as 5 (Level 5: growth control rate is above 85%). Besides, the “weeding effect … Digitaria sanguinalis (level)” value with Digitaria sanguinalis is on record as 5 (Level 5: growth control rate is above 85%). Besides, the “weeding effect … Abutilon theophrasti (level)” value in the assay with Abutilon theophrasti is on record as 5 (Level 5: growth control rate is above 85%). The “weeding effect … Amaranthus retroflexus (level)” value with Amaranthus retroflexus is recorded as 5 (Level 5: growth control rate is above 85%). The “weeding effect … Setaria viridis (level)” value with Setaria viridis is 5 (Level 5: growth control rate is above 85%). The “weeding effect … Galium aparine (level)” value in the assay on Galium aparine is 5 (Level 5: growth control rate is above 85%).

`CCC(C)=NOC(=O)C1(C)CC(c2cc(-n3c(=O)n(C)c(=S)n(C)c3=O)c(F)cc2Cl)=NO1` (mixture of isomers) [Compound 79]: the “weeding effect … Eleusine indica (level)” value in the assay with Eleusine indica is 5 (Level 5: growth control rate is above 85%). Moreover, the “weeding effect … Veronica didyma Tenore (level)” value in the assay on Veronica didyma Tenore is listed as 5 (Level 5: growth control rate is above 85%). For the same molecule, the “weeding effect … Leptochloa chinensis (level)” value with Leptochloa chinensis is reported as 5 (Level 5: growth control rate is above 85%). Moreover, the “weeding effect … Echinochloa crusgalli (level)” value in the assay with Echinochloa crusgalli is on record as 5 (Level 5: growth control rate is above 85%). For the same molecule, the “weeding effect … Digitaria sanguinalis (level)” value in the assay with Digitaria sanguinalis is reported as 5 (Level 5: growth control rate is above 85%). Further, the “weeding effect … Abutilon theophrasti (level)” value with Abutilon theophrasti is on record as 5 (Level 5: growth control rate is above 85%). Besides, the “weeding effect … Amaranthus retroflexus (level)” value in the assay with Amaranthus retroflexus is 5 (Level 5: growth control rate is above 85%). Besides, in the assay with Setaria viridis, the “weeding effect … Setaria viridis (level)” value was 5 (Level 5: growth control rate is above 85%). Moreover, the “weeding effect … Galium aparine (level)” value in the assay with Galium aparine is on record as 5 (Level 5: growth control rate is above 85%).

For `Cn1c(=S)n(C)c(=O)n(-c2cc(C3=NOC(C)(C(=O)ON=C4CCCC4)C3)c(Cl)cc2F)c1=O` (stereo not drawn) [Compound 146], the “weeding effect … Eleusine indica (level)” value in the assay on Eleusine indica was 5 (Level 5: growth control rate is above 85%). The “weeding effect … Veronica didyma Tenore (level)” value with Veronica didyma Tenore is recorded as 5 (Level 5: growth control rate is above 85%). Also, the “weeding effect … Leptochloa chinensis (level)” value in the assay with Leptochloa chinensis was 5 (Level 5: growth control rate is above 85%). Also, the “weeding effect … Echinochloa crusgalli (level)” value in the assay on Echinochloa crusgalli is given as 5 (Level 5: growth control rate is above 85%). The “weeding effect … Digitaria sanguinalis (level)” value in the assay with Digitaria sanguinalis is on record as 5 (Level 5: growth control rate is above 85%). Besides, the “weeding effect … Abutilon theophrasti (level)” value in the assay with Abutilon theophrasti was 5 (Level 5: growth control rate is above 85%). The “weeding effect … Amaranthus retroflexus (level)” value in the assay on Amaranthus retroflexus is given as 5 (Level 5: growth control rate is above 85%). The “weeding effect … Setaria viridis (level)” value in the assay on Setaria viridis is 5 (Level 5: growth control rate is above 85%). Further, the “weeding effect … Galium aparine (level)” value in the assay with Galium aparine was 5 (Level 5: growth control rate is above 85%).
